We go through 6 compounds from publication PMC8154566, “Scaffold-Hopping Strategy on a Series of Proteasome Inhibitors Led to a Preclinical Candidate for the Treatment of Visceral Leishmaniasis” (Journal of Medicinal Chemistry, 2021).

Values after ≈ are worked out from the molar mass of the structure shown. Read-outs that look alike come from different tables or passages of the source.

Data set [1] can be described thus: Mouse liver microsomal intrinsic clearance. The data set is classed as in vitro ADME. The conditions noted are these: for Mouse CLi: mouse liver microsomes; for Cli (mouse, ml/min/g): supplementary csv. The procedure:
(§1) Intramacrophage L. donovani Assay. This assay was conducted as previously described, except for compound exposure time, which was 96 h instead of 72 h.4
(§2) Intrinsic Clearance. This assay was conducted as previously described.5 Aqueous Solubility. This assay was conducted as previously described.6
(§3) FaSSIF Solublity. This assay was conducted as previously described.5,7
(§4) In vivo Mouse Efficacy Studies. In vivo studies were carried out as previously described, with minor modifications.7 Briefly: Control drug used was Miltefosine (30 mg/kg orally, twice daily for 5 days), vehicle used was 10% (v/v) dimethyl sulfoxide (DMSO), 40% polyethylene glycol 400, and 50% deionized water (10 Ml/kg orally, twice daily for 5 days) and mice were treated with test compound intraperitoneally (50 mg/kg twice daily for 5 days). 5
(§5) All regulated procedures on living animals were carried out under the authority of a project license issued by the Home Office under the Animals (Scientific Procedures) Act 1986, as amended in 2012 (and in compliance with EU Directive EU/2010/63). Infected animals had access to food and water ad libitum and were housed under a 12 hour light/dark photoperiod. Animals used in these experiments were female NMRI and Balb/c mice (Harlan, UK).
(§6) Test compound DDD01008714 was dosed orally (P.O.) at 10 mg free base/kg (dose volume 10 mL/kg; dose vehicle: 10% (vol/vol) dimethyl sulfoxide (DMSO), 40% polyethylene glycol 400 (PEG400) and 50% deionized water) to female NMRI mice (n = 3) or intravenously (I.V.) at 3 mg free base/kg (dose volume 5 mL/kg; dose vehicle: 10% (vol/vol) dimethyl sulfoxide (DMSO) and 90% Saline) to female Balb/c mice (n = 3). Blood samples (10 μL) where taken from the tail vein of […]
A general note: Liver microsomes are vesicles of endoplasmic reticulum, rich in cytochrome P450 enzymes.

Data set [2] can be described thus: Kinetic aqueous solubility by CLND. Type of data set: physicochemical. The procedure: We had successfully used these criteria in the hit to lead stage to identify compounds for in vivo proof-of-concept studies in another program, which subsequently led to the identification of preclinical candidate DDD853651/GSK3186899 active against CRK12.[7] […] A pharmacokinetic (PK) study was thus performed, dosed at 10 mg/kg po and 3 mg/kg iv. […] With the limited knowledge of the PK/PD drivers for the treatment of VL, we considered this to be a suitable profile for the progression of 4 into a previously reported mouse efficacy model of VL,[6],[7],[17],[18] where it was dosed twice daily at 50 mg/kg ip in order to further maximize exposure and give the best chance of achieving proof-of-concept.
as §1, §2, §3, §4, §5, §6

The nature of data set [3]: FaSSIF (fasted state simulated intestinal fluid) solubility. The data set is classed as physicochemical. Conditions: for solubility: supplementary csv. The method, then:
as §1, §2, §3, §4, §5, §6

The test system of data set [4] is L. donovani amastigotes. Briefly: INMAC assay: intramacrophage L. donovani in differentiated THP-1 cells. The data set is classed as cell-based, Leishmania donovani. The conditions noted are these: for IC50 / EC50: Leishmania donovani; for IC50: THP-1, read-out: LdInMac pIC50 (converted); for EC50: THP-1, at least three replicates, SD ≤0.4. The procedure: (§7) Intramacrophage L. donovani Assay. This assay was conducted as previously described, except for […]

Data set [5] concerns THP-1 cells. Description: THP-1 host cell read-out of the INMAC assay. The data set is classed as cell-based. Conditions: Homo sapiens. The procedure: as §7
Setting [6] is: Table 6, kinetic, CLND, read-out: Aq. solubility.
Setting [7] is: supplementary csv, read-out: Aqueous Solubility.
The mark [8] stands for this setting: Table 6, read-out: INMAC pEC50 (converted).
Setting [9] is: THP-1, Table 6, read-out: THP-1 pEC50 (converted).
Where [10] appears, read: THP-1, supplementary csv, read-out: THP1 pIC50 (converted).
[11] abbreviates: Table 5, kinetic, CLND, read-out: Aq. solubility.
Setting [12] is: Table 5, read-out: INMAC pEC50 (converted).
[13] abbreviates: THP-1, Table 5, read-out: THP-1 pEC50 (converted).
The mark [14] stands for this setting: THP-1, read-out: THP1 pIC50 (converted).

On to `CC(=O)N1CCN(c2cnc3nc(-c4cc(NC(=O)N5CCCC5)ccc4F)ccn23)CC1` [Compound 36, N-(3-(3-(4-Acetylpiperazin-1-yl)imidazo[1,2-a]pyrimidin-7-yl)-4-fluorophenyl)pyrrolidine-1-carboxamide], for which, in data set [1] (Table 6), the “Mouse CLi” value was 1.5 mL/min/g. Moreover, in data set [1], the “Cli (mouse, ml/min/g)” value came out at 1.5 mL/min/g. The solubility in data set [2] (setting [6]) is no less than 381 µM; in data set [2] (setting [7]), no less than 380 µM; in data set [3], greater than 1000 µM. The compound further had a solubility at 4 h in data set [3] (pH 6.5, Table 6) of 1310 µM (≈ 591 µg/mL). Further, the IC50 in data set [4] and in data set [5] (setting [10]) was greater than 50.1 µM throughout. Moreover, the EC50 in data set [4] (setting [8]) and in data set [5] (setting [9]) was greater than 50.1 µM in each case.

`O=C(Nc1nccc(-c2cn3cc(N4CCOCC4)cnc3n2)n1)N1CCCC1` [Compound 12, N-(4-(6-Morpholinoimidazo[1,2-a]pyrimidin-2-yl)pyrimidin-2-yl)pyrrolidine-1-carboxamide]: the “Mouse CLi” value in data set [1] (Table 2) was less than 0.5 mL/min/g. In addition, in data set [1], the “Cli (mouse, ml/min/g)” value was less than 0.5 mL/min/g. Also, the solubility was no less than 470 µM in data set [2] (Table 2, kinetic, CLND, read-out: Aq. solubility) and greater than 1000 µM in data set [3]. Moreover, in data set [4] (INMAC, relative to compound 4), the loss of potency was greater than 10 fold. The IC50 in data set [4] and in data set [5] (setting [10]) was greater than 50.1 µM in each case. Moreover, the EC50 in data set [4] (Table 2, read-out: INMAC (pEC50) (converted)) is greater than 50.1 µM; in data set [5] (THP-1, Table 2, read-out: THP-1 (pEC50) (converted)), greater than 50.1 µM.

For `O=C(Nc1ccc(F)c(-c2cc3cc(N4CCOCC4)cnn3n2)c1)N1CCCC1` [Compound 26, N-(4-Fluoro-3-(5-morpholinopyrazolo[1,5-b]pyridazin-2-yl)phenyl)pyrrolidine-1-carboxamide], in data set [1] (Table 5), the “Mouse CLi” value was determined as 1.7 mL/min/g. Besides, the “Cli (mouse, ml/min/g)” value in data set [1] stood at 1.7 mL/min/g. In addition, the solubility in data set [2] (setting [11]) was 51 µM (≈ 20.9 µg/mL). The amount in solution in data set [3] (pH 6.5, Table 5) (solubility at 4 h) came to 12 µM (≈ 4.93 µg/mL). The EC50 was 0.158 µM in data set [4] (setting [12]) and greater than 50.1 µM in data set [5] (setting [13]). In data set [5] (setting [10]), the IC50 is greater than 50.1 µM.

On to `CC1(C)CN(c2cnc3nc(-c4cc(NC(=O)N5CCCC5)ccc4F)ccn23)CCO1` [Compound 42, N-(3-(3-(2,2-Dimethylmorpholino)imidazo[1,2-a]pyrimidin-7-yl)-4-fluorophenyl)pyrrolidine-1-carboxamide], for which the “Mouse CLi” value in data set [1] (Table 6) came out at 2.9 mL/min/g. Besides, the “Cli (mouse, ml/min/g)” value in data set [1] worked out at 2.9 mL/min/g. The solubility is 247 µM (≈ 108 µg/mL) in data set [2] (setting [6]), 250 µM (≈ 110 µg/mL) in data set [2] (setting [7]) and greater than 1000 µM in data set [3]. Also, the concentration in solution in data set [3] (pH 6.5, Table 6) (solubility at 4 h) came to 1840 µM (≈ 806 µg/mL). The EC50 in data set [4] (setting [8]) is 1 µM; in data set [5] (setting [9]) it was 25.1 µM. In addition, the IC50 in data set [5] (setting [10]) is 25.1 µM.

For the compound `O=C(Nc1ccc(F)c(-c2cn3nc(N4CCOCC4)cnc3n2)c1)N1CCCC1` [Compound 23, N-(4-Fluoro-3-(2-morpholinoimidazo[1,2-b][1,2,4]triazin-6-yl)phenyl)pyrrolidine-1-carboxamide], the “Mouse CLi” value in data set [1] (Table 5) is on record as 0.9 mL/min/g. In addition, in data set [1], the “Cli (mouse, ml/min/g)” value came out at 0.9 mL/min/g. Also, the solubility was 126 µM (≈ 51.8 µg/mL) in data set [2] (setting [11]), 130 µM (≈ 53.5 µg/mL) in data set [2] (setting [7]) and 140 µM (≈ 57.6 µg/mL) in data set [3]. Moreover, the EC50 was 0.398 µM in data set [4] (setting [12]) and greater than 50.1 µM in data set [5] (setting [13]). In addition, the IC50 in data set [5] (setting [14]) was greater than 50.1 µM.

For the compound `C[C@@H]1CN(c2cnc3nc(-c4cc(NC(=O)N5CCCC5)ccc4F)ccn23)C[C@H](C)O1` [Compound 41, N-(3-(3-((2S,6R)-2,6-Dimethylmorpholino)imidazo[1,2-a]pyrimidin-7-yl)-4-fluorophenyl)pyrrolidine-1-carboxamide], in data set [1] (Table 6), the “Mouse CLi” value worked out at 3.4 mL/min/g. In addition, the “Cli (mouse, ml/min/g)” value in data set [1] worked out at 3.4 mL/min/g. Moreover, the values for the solubility in data set [2] (setting [6]), in data set [2] (setting [7]) and in data set [3] were 142 µM (≈ 62.3 µg/mL), 170 µM (≈ 74.5 µg/mL) and 365 µM (≈ 160 µg/mL), respectively. In addition, in data set [3] (pH 6.5, Table 6), the concentration in solution (solubility at 4 h) was 372 µM (≈ 163 µg/mL). Also, the EC50 in data set [4] (setting [8]) was 1.58 µM; in data set [5] (setting [9]), 63.1 µM. Moreover, the IC50 in data set [5] (setting [14]) is 63.1 µM.

A word on the solubility: it is the concentration that dissolves in the medium under given conditions.
